Publication PMC6326523, “A high-throughput screen to identify novel small molecule inhibitors of the Werner Syndrome Helicase-Nuclease (WRN)” (PLoS ONE, 2019)

Columns and labels:
[1] = test system: U2-OS cells; experiment: U2-OS cell proliferation assay (WST-1); format: cell-based, human; settings: 100 μM; for Effect on proliferation of U2-OS cells: Day 0 through Day 3
Experimental: WRN inhibitors were diluted in DMSO to a concentration 100-fold higher than their final concentrations. U2-OS cells in culture were counted, spun down and resuspended to 35,000 cells/mL in DMEM with 10% FBS and Pen/Strep antibiotic. For each cell condition, 15 μL of DMSO or inhibitor was added to 1.5 ml of U2-OS cells in DMEM or DMEM alone. One hundred μL of each cell condition was plated in triplicate on each of four 96-well plates representing days 0–3. Ten μL of WST-1 cell proliferation reagent (Roche) was added to the day 0 plate and readings were taken 2 hr later using a plate reader set to 450 nm. WST-1 cell proliferation reagent was added to plates on days 1–3 and readings were taken after 2 hr incubation. Percent cell proliferation was normalized to cells in the presence of DMSO with the background OD450 of DMEM with each drug subtracted out.
Fig 9 Effects of WRN helicase inhibitors on cancer cell proliferation. (A) Cell proliferation of HeLa 1.2.11 cells treated with 50 μM NCGC00029283-03, NCGC00063279-03, NCGC00357377-01 and NSC 617145 (positive control) or vehicle (DMSO) on Day 0 and Day 3 as measured using the WST-1 cell proliferation reagent. (B) Cell proliferation of U2-OS cells treated with increasing amounts of NCGC00029283-03 (0–100 μM) from Day 0 through Day 3. (C) Cell proliferation of U2-OS cells treated with increasing amounts of NCGC00063279-03 (0–100 μM) from Day 0 through Day 3. (D) Cell proliferation of U2-OS cells treated with 100 μM NCGC00357377-01 from Day 0 through Day 3.
HeLa cells are characterized by reduced expression of wild-type p53 as well as an inability to increase p53 levels after DNA damage due to human papillomavirus (HPV) elements. This raised the possibility that p53 status may play a role in the ability of small molecule WRN helicase inhibitors to affect cell proliferation. In addition, HeLa 1.2.11 cells are characterized by relatively long telomeres and use telomerase to maintain telomere length. Since WRN is implicated in the Alternative Lengthening of Telomeres (ALT) pathway, cells that are dependent on the ALT pathway may be more sensitive to WRN inhibitors as well. To address this possibility, we treated U2-OS osteosarcoma cells (which express wild-type p53 and utilize the ALT pathway for keeping very long telomeres) with all three compounds. In this case, we observed a 50% reduction in U2-OS cell proliferation two days after initial exposure to NCGC00029283-03 (100 μM).

[2] = biological target: T1, GST-WRN500-946 helicase domain fragment (Homo sapiens, UniProt Q14191); experiment: High-throughput fluorometric helicase screen, PubChem AID 651768; format: biochemical; settings: initial qHTS; 20 nM GST-WRN500-946; 100 nM FORKF; NA = Not Active; read-out: IC50 (μM) Assay ID 651768
T1 construct: made in house; host or cells: insect cells
Experimental: The structures of the members of this collection are available in the PubChem portal https://pubchem.ncbi.nlm.nih.gov/. For both the 350,000 small molecule collection and the LOPAC^1280 screens, 3 μL of GST-WRN500-946 or reaction buffer only were dispensed using a solenoid-valve nanoliter dispenser into a black 1536-well plate (Greiner). Twenty three nL of each serially diluted compound (0.08–50 μM for the LOPAC screen and 0.003–114 μM for the larger library screen) or control were added to each well using a Kalypsys pintool equipped with a 1536-pin array. Plates were incubated at room temperature for 15 min, followed by initiation of the reactions via the addition of 1 μL of substrate (100 nM FORKF and 2 mM ATP final concentrations). Plates were transferred to a ViewLux high-throughput CCD imager and fluorescence was measured in kinetic mode using an excitation filter of 525 nm and emission filter of 598 nm.
Zʹ factor, a measure for assay quality control was calculated using the formula Z′ = 1−(3σS^++3σS^−)∕|μS^+−μS^−| as described previously. In this formula, 3σS^+ represents 3 standard deviations from the mean of positive signals while 3σS^− represents 3 standard deviations from the mean of negative signals. μS^+ and μS^− represent the mean of positive signals and negative signals respectively. Percent activity was derived using in-house software (http://tripod.nih.gov/curvefit/). Dose-response curves were classified as described previously.
A collection of approximately 350,000 compounds is available for screening which has been assembled from multiple sources to provide diverse chemical scaffolds with known purity, identity and solubility. To perform the high-throughput screen of these compounds, we needed to produce approximately 50 milligrams of recombinant WRN helicase fragment. To accomplish this, we cloned the helicase domain fragment into several plasmids for either insect cell or bacterial expression to optimize expression and yield. We selected expression plasmids for insect cell expression with either a GST or MBP tag (image A in S1 Fig) and purified the protein (image B in S1 Fig). The GST-WRN500-946 fragment isolated from insect cells was used in the high throughput screen with the conditions described in Fig 2C (20 nM GST-WRN500-946, 100 nM FORKF DNA substrate) and a summary of the results can be found on PubChem (National Center for Biotechnology Information. PubChem BioAssay Database; Assay Identifier (AID) = 651768, https://pubchem.ncbi.nlm.nih.gov/bioassay/651768). […] To verify the active compounds, approximately 600 hit molecules were retested in a confirmatory screen also found on PubChem (National Center for Biotechnology Information. PubChem AID = 720497, https://pubchem.ncbi.nlm.nih.gov/bioassay/720497). Of these, a little less than four hundred compounds were confirmed as active compounds.

[3] = biological target: T2, full-length WRN exonuclease activity (Homo sapiens, UniProt Q14191); experiment: WRN exonuclease activity on radiolabeled FORKR DNA substrate; format: biochemical; settings: WRN 20 nM, FORKR 1 nM; for Inhibition of WRN exonuclease activity: same concentration range as activity against WRN helicase
T2 construct: Full length recombinant WRN [18], BLM [19], and FANCJ [20] proteins were purified from insect cells; made in house; host or cells: insect cells
Experimental: Fig 8 Specificity of selected compounds for inhibiting full-length WRN helicase activity. […] (B) Gel image of full-length WRN (20 nM) exonuclease activity on the radiolabeled FORKR DNA substrate (1 nM) in the presence of increasing concentrations of NCGC00029283-03, NCGC00063279-03 and NCGC00357377-01 (0–200 μM).
Three compounds identified from the cherry-picked set were tested for their effects on WRN exonuclease activity (20 nM) on the FORKR DNA substrate (1 nM) as well as DNA unwinding by full-length BLM (0.1 nM) and FANCJ (5 nM) helicases, which belong to the same Superfamily 2 as WRN [25], to assess their specificity for inhibition of WRN-catalyzed unwinding of the FORKR DNA substrate (0.5 nM). […] Nonetheless, these two compounds were also further tested in cell-based assays to assess their effects on proliferation.

T2 sequence (Q14191 whole entry): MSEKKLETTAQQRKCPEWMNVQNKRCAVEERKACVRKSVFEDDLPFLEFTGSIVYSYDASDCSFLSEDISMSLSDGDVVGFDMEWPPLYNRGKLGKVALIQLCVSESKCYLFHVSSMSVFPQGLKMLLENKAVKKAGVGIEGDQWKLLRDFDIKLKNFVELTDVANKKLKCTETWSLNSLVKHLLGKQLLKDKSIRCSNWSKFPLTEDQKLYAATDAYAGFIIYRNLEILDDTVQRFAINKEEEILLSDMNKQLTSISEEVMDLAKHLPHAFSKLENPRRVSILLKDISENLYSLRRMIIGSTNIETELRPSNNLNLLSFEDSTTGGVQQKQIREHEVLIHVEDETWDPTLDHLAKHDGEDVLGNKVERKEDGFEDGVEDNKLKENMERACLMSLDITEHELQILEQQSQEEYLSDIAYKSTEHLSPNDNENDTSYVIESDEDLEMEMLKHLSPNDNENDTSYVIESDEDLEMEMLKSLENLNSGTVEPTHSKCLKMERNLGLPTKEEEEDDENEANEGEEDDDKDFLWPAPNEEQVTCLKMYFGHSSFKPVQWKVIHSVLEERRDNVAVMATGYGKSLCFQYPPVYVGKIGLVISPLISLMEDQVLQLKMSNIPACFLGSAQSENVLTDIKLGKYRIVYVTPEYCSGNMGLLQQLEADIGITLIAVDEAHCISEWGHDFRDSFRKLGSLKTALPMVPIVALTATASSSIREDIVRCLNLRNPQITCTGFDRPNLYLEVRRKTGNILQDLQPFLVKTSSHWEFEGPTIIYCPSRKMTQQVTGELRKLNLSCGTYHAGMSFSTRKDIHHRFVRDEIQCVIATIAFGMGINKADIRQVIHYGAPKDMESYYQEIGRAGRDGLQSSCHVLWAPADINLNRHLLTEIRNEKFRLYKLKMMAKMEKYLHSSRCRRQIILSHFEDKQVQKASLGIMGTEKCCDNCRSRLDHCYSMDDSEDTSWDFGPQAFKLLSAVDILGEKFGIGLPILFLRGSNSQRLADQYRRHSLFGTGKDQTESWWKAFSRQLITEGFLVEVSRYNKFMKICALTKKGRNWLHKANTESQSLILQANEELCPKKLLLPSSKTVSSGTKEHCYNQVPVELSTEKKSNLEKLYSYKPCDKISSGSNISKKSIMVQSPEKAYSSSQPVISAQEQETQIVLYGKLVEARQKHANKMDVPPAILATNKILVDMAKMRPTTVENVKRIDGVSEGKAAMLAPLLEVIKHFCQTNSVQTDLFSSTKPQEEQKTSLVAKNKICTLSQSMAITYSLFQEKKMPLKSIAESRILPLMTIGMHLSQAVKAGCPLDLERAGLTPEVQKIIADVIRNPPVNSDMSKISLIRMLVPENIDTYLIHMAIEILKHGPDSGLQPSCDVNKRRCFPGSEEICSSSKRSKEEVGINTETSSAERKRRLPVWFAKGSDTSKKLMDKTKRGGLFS
T1 sequence (Q14191 500-946): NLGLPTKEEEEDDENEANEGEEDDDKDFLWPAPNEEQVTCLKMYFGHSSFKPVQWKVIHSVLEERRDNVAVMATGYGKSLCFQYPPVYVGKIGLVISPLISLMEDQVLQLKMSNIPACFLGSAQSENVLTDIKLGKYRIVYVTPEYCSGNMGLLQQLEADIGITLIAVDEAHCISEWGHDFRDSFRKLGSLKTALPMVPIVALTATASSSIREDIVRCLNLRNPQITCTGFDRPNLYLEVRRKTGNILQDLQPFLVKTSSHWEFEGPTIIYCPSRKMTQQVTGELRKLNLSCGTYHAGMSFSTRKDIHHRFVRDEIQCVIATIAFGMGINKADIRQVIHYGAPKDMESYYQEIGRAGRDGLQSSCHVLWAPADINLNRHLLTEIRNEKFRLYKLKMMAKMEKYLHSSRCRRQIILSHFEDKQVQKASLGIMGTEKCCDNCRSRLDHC

Row | SMILES | Effect on proliferation of U2-OS cells ([1]; listed as NCGC00357377) | Effect on proliferation of U2-OS cells ([1]; listed as NCGC00357377-01) | IC50 [2] | Inhibition of WRN exonuclease activity at 200 μM [3] | Inhibition of WRN exonuclease activity [3] | Effect on proliferation of U2-OS cells [1] | Reduction in U2-OS cell proliferation ([1]; two days after initial exposure) | Reduction in U2-OS cell proliferation ([1]; after three days exposure)
1 | Cc1ccc(-c2csc(NS(=O)(=O)c3cccc(F)c3)n2)o1 [MLS002251300-02] | did not reduce cell proliferation | did not have any effect | 31.6 µM | some ability to inhibit | unable to inhibit |  |  | 
2 | COc1ccc2nc(O)c(-c3noc(-c4ccc(F)cc4)n3)cc2c1 [NCGC00029283-02] |  |  | 50 µM | some ability to inhibit | unable to inhibit | also detectable after three days | 50% | 
3 | COc1ccc2nc(O)c(-c3noc(-c4ccccc4)n3)cc2c1 [NCGC00063279-02] |  |  | 21.5 µM | some ability to inhibit | unable to inhibit |  |  | 40%
